Measurements reported in patent US10703746B2, “Mutant IDH1 inhibitors useful for treating cancer” (THE UNITED STATES OF AMERICA, AS REPRESENTED BY THE …, priority 2014, dated 2020).

Tests used:
[1] = biological target: IDH1 R132C (Homo sapiens, UniProt O75874, R132C); test: IDH1 R132C enzymatic assay (NADPH depletion coupled to diaphorase/resazurin); format: biochemical; settings: IDH1 R132C enzymatic inhibition, IC50 class
Procedure, shortened: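 NADPH depletion, read via diaphorase/resazurin coupling, after adding substrate at 0.6 mM α-KG and 0.012 mM NADPH. Beforehand, 0.00032 mg/mL enzyme sat with compound 30 min at room temperature in pH 6.5 potassium phosphate buffer with MgCl2, glycerol and BSA.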

[2] = biological target: IDH1 R132H (Homo sapiens, UniProt O75874, R132H); test: IDH1 R132H enzymatic assay (NADPH depletion coupled to diaphorase/resazurin); format: biochemical; settings: IDH1 R132H enzymatic inhibition, IC50 class
Sequence of IDH1 R132H (O75874 whole entry R132H): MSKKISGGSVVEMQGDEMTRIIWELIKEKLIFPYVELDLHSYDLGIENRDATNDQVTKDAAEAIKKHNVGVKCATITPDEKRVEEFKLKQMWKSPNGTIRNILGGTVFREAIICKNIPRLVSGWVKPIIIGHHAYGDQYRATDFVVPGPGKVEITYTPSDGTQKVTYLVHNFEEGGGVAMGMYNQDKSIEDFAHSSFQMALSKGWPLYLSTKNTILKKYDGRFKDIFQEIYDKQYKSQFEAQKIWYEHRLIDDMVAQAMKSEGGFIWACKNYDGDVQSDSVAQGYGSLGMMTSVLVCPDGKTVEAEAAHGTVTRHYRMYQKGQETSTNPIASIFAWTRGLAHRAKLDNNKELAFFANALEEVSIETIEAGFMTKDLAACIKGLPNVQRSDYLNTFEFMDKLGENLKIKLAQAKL

Sequence of IDH1 R132C (O75874 whole entry R132C): as the sequence (O75874 whole entry R132H) above, with H132C counted along it

IC50 [1]	IC50 [2]	Structure (SMILES)
300 to 1000 nM	< 300 nM	CCOc1ncc(C)cc1-n1c(C=C(C)C)c(C(=O)N2CCNCC2)cc(-c2nc(-c3ccc(C(F)F)nc3)cs2)c1=O [Compound 326]
< 300 nM	< 300 nM	CCc1ncc(F)cc1-n1c(C=C(C)C)c(C(=O)N2CCNCC2)cc(-c2nc(-c3ccc(C(F)(F)F)cc3)cs2)c1=O [Compound 328]
< 300 nM	< 300 nM	CCOc1ccc(F)cc1-n1c(C=C(C)C)c(C(=O)N2CCNCC2)cc(-c2nc(-c3ccc(C(F)(F)F)cc3)cs2)c1=O [Compound 329]
300 to 1000 nM	< 300 nM	CCc1ncc(C)cc1-n1c(C=C(C)C)c(C(=O)N2CCNCC2)cc(-c2nc(-c3ccc(Cl)cc3)cs2)c1=O [Compound 330]
300 to 1000 nM	< 300 nM	CCOc1ncccc1-n1c(C=C(C)C)c(C(=O)N2CCNCC2)cc(-c2nc(-c3ccc(Cl)cc3)cs2)c1=O [Compound 331]
< 300 nM	< 300 nM	CCc1ccc(N(C)C)cc1-n1c(C=C(C)C)c(C(=O)N2CCNCC2)cc(-c2nc(-c3ccc(Cl)cc3)cs2)c1=O [Compound 333]
1000 to 5000 nM	300 to 1000 nM	CC(C)=Cc1c(C(=O)N2CCNCC2)cc(-c2nc(-c3ccc(Cl)cc3)cs2)c(=O)n1-c1ccccc1 [Compound 341]
< 300 nM	< 300 nM	CCOc1ccc(OCC)c(-n2c(C=C(C)C)c(C(=O)N3CCNCC3)cc(-c3nc(-c4ccc(Cl)cc4)cs3)c2=O)c1 [Compound 348]
< 300 nM	< 300 nM	CCc1ccc(F)cc1-n1c(C=C(C)C)c(C(=O)N2CCNCC2)cc(-c2nc(-c3ccc(Cl)cc3)cs2)c1=O [Compound 352]
< 300 nM	< 300 nM	CCOc1ccc(Cl)c(-n2c(C=C(C)C)c(C(=O)N3CCNCC3)cc(-c3nc(-c4ccc(Cl)cc4)cs3)c2=O)c1 [Compound 354]
< 300 nM	< 300 nM	CC(C)=Cc1c(C(=O)N2CCNCC2)cc(-c2nc(-c3ccc(Cl)cc3)cs2)c(=O)n1-c1cc(C)ccc1Cl [Compound 357]
< 300 nM	< 300 nM	CC(C)=Cc1c(C(=O)N2CCNCC2)cc(-c2nc(-c3ccc(Cl)cc3)cs2)c(=O)n1-c1cc(Cl)ccc1Cl [Compound 359]
< 300 nM	< 300 nM	COc1ncc(F)cc1-n1c(C=C(C)C)c(C(=O)N2CCNCC2)cc(-c2nc(-c3ccc(Cl)cc3)cs2)c1=O [Compound 361]
< 300 nM	< 300 nM	CC(C)=Cc1c(C(=O)N2CCNCC2)cc(-c2nc(-c3ccc(Cl)cc3)cs2)c(=O)n1-c1c(Cl)cccc1OC(C)C [Compound 367]
< 300 nM	< 300 nM	CC(C)=Cc1c(C(=O)N2CCNCC2)cc(-c2nc(-c3ccc(Cl)cc3)cs2)c(=O)n1-c1ccccc1C(C)(C)C [Compound 372]
< 300 nM	< 300 nM	CCOc1cccc(Cl)c1-n1c(C=C(C)C)c(C(=O)N2CCNCC2)cc(-c2nc(-c3ccc(Cl)cc3)cs2)c1=O [Compound 374]
< 300 nM	< 300 nM	CCOc1ccc(F)cc1-n1c(C=C(C)C)c(C(=O)N2CCNCC2)cc(-c2nc(-c3ccc(C(F)F)cc3)cs2)c1=O [Compound 376]
< 300 nM	< 300 nM	CCOc1ccc(Cl)cc1-n1c(C=C(C)C)c(C(=O)N2CCNCC2)cc(-c2nc(-c3ccc(C(F)F)cc3)cs2)c1=O [Compound 378]
< 300 nM	< 300 nM	COc1ccc(OC)c(-n2c(C=C(C)C)c(C(=O)N3CCNCC3)cc(-c3nc(-c4ccc(Cl)cc4)cs3)c2=O)c1 [Compound 380]
< 300 nM	< 300 nM	CCOc1ccc(F)cc1-n1c(C=C(C)C)c(C(=O)N2CCNCC2)cc(-c2nc(-c3ccc(Cl)cc3)cs2)c1=O [Compound 381]
300 to 1000 nM	300 to 1000 nM	COc1ccc(C(F)(F)F)cc1-n1c(C=C(C)C)c(C(=O)N2CCNCC2)cc(-c2nc(-c3ccc(Cl)cc3)cs2)c1=O [Compound 383]

Continued, molecule first:

Structure (SMILES)	IC50 [1]	IC50 [2]
CCc1cccc(CC)c1-n1c(C=C(C)C)c(C(=O)N2CCNCC2C(C)C)cc(-c2nc(-c3ccc(Cl)cc3)cs2)c1=O (stereo not shown) [Compound 332]	< 300 nM	300 to 1000 nM
CCc1ncc(OC)cc1-n1c(C=C(C)C)c(C(=O)N2CCNCC2)cc(-c2nc(-c3ccc(C(F)(F)F)nc3)cs2)c1=O [Compound 334]	1000 to 5000 nM	300 to 1000 nM
CCc1cccc(CC)c1-n1c(C=C(C)C)c(C(=O)N2CCNCC2)cc(-c2nc(-c3ccc(C(F)F)cc3)cs2)c1=O [Compound 336]	< 300 nM	< 300 nM
CCc1cccc(CC)c1-n1c(C=C(C)C)c(C(=O)N2CCNC(=O)C2CC(=O)O)cc(-c2nc(-c3ccc(Cl)cc3)cs2)c1=O (stereo not shown) [Compound 337]	< 300 nM	< 300 nM
CCc1cccc(CC)c1-n1c2c(cc(-c3nc(-c4ccc(Cl)cc4)cs3)c1=O)C(=O)N(C)C2C(C)C (stereo not shown) [Compound 338]	300 to 1000 nM	1000 to 5000 nM
O=C1CCCc2c1cc(-c1nc(-c3ccc(Cl)cc3)cs1)c(=O)n2-c1ccccc1CN1CCOCC1 [Compound 339]	1000 to 5000 nM	5000 to 20000 nM
CCc1cccc(CC)c1-n1c(CC(C)C)c(C(=O)N2CCNCC2)cc(-c2nc(-c3ccc(Cl)cc3)co2)c1=O [Compound 340]	300 to 1000 nM	300 to 1000 nM
Cc1cc(CO)ccc1-n1c2c(cc(-c3nc(-c4ccc(Cl)cc4)cs3)c1=O)C(=O)CCC2 [Compound 342]	5000 to 20000 nM	5000 to 20000 nM
O=C1CCCc2c1cc(-c1nc(-c3ccc(Cl)cc3)cs1)c(=O)n2-c1ccccc1OCC(F)(F)F [Compound 343]	1000 to 5000 nM	1000 to 5000 nM
CCc1cccc(CC)c1-n1c(C=C(C)C)c(C(=O)N2CC3(CCNC3)C2)cc(-c2nc(-c3ccc(Cl)cc3)cs2)c1=O [Compound 344]	< 300 nM	300 to 1000 nM
CCc1cccc(CC)c1-n1c(C=C(C)C)c(C(=O)N2CCNCC2)cc(-c2nn(-c3ccc(Cl)cc3)cc2Cl)c1=O [Compound 345]	1000 to 5000 nM	1000 to 5000 nM
Cc1cc(C#N)c(-n2c3c(cc(-c4nc(-c5ccc(Cl)cc5)cs4)c2=O)C(=O)CC(C)(C)C3)s1 [Compound 346]	300 to 1000 nM	300 to 1000 nM
CCOC(=O)c1c(O)c(-c2nc(-c3ccc(Cl)cc3)cs2)c(=O)n(-c2c(CC)cccc2CC)c1C [Compound 347, ethyl 5-(4-(4-chlorophenyl)thiazol-2-yl)-1-(2,6-diethylphenyl)-4-hydroxy-2-methyl-6-oxo-1,6-dihydropyridine-3-carboxylate]	5000 to 20000 nM	5000 to 20000 nM
CCc1cccc(CC)c1-n1c(C=C(C)C)c(C(=O)N2CCNCC2)cc(-c2ccn(-c3ccc(Cl)cc3)n2)c1=O [Compound 349]	< 300 nM	< 300 nM
O=C1CCCc2c1cc(-c1nc(-c3ccc(Cl)cc3)cs1)c(=O)n2-c1ccccn1 [Compound 350]	> 20000 nM	> 20000 nM
COc1ncc(C2=CCNCC2)cc1-n1c2c(cc(-c3nc(-c4ccc(Cl)cc4)cs3)c1=O)C(=O)CC(C)(C)C2 [Compound 351]	5000 to 20000 nM	5000 to 20000 nM

Structure (SMILES)	IC50 [1]	IC50 [2]
CCc1cccc(CC)c1N1C(=O)C(c2nc(-c3ccc(Cl)cc3)cs2)CC(C(=O)N2CCNCC2)=C1CC(C)C (stereo not shown) [Compound 356]	< 300 nM	300 to 1000 nM
CCc1cccc(CC)c1-n1c(C=C(C)C)c(C(=O)N2CCNC(=O)C2)cc(-c2nc(-c3ccc(Cl)cc3)cs2)c1=O [Compound 358]	< 300 nM	< 300 nM
CN1CCN(Cc2ccc(-n3c4c(cc(-c5nc(-c6ccc(Cl)cc6)cs5)c3=O)C(=O)CCC4)cc2)CC1 [Compound 360]	> 20000 nM	> 20000 nM
CCc1cccc(CC)c1-n1c(C=C(C)C)c(C(=O)N2CCNCC2)cc(-c2nn(-c3ccc(Cl)cc3)cc2Br)c1=O [Compound 363]	5000 to 20000 nM	1000 to 5000 nM
COc1ccc(Cl)c(-n2c(CC(C)C)c(C(=O)N3CCNCC3)cc(-c3nc(-c4ccc(Cl)cc4)cs3)c2=O)c1 [Compound 364]	300 to 1000 nM	< 300 nM
CCc1cccc(CC)c1-n1c(CC2CCNCC2)c(C(=O)NC)cc(-c2nc(-c3ccc(Cl)cc3)cs2)c1=O [Compound 365]	5000 to 20000 nM	5000 to 20000 nM
CCc1cccc(CC)c1-n1c(C=C(C)C)c(C(=O)N2CCNCC2(C)C)cc(-c2nc(-c3ccc(Cl)cc3)cs2)c1=O [Compound 366]	< 300 nM	< 300 nM
O=C1CCCc2c1cc(-c1nc(-c3ccc(Cl)cc3)cs1)c(=O)n2-c1ccncc1 [Compound 368]	> 20000 nM	> 20000 nM
CC1(C)CC(=O)c2cc(-c3nc(-c4ccc(Cl)cc4)cs3)c(=O)n(-c3sccc3C(N)=O)c2C1 [Compound 369]	5000 to 20000 nM	5000 to 20000 nM
CCc1cccc(CC)c1-n1c(C=C(C)C)c(C(=O)N2CCNC(C)C2)cc(-c2nc(-c3ccc(Cl)cc3)cs2)c1=O (stereo not shown) [Compound 370]	< 300 nM	< 300 nM
CCc1cccc(CC)c1-n1c(C=C(C)C)c(C(=O)N2CCNC(CCO)C2)cc(-c2nc(-c3ccc(Cl)cc3)cs2)c1=O (stereo not shown) [Compound 371]	< 300 nM	< 300 nM
CCc1cccc(CC)c1-n1c(CCC(F)(F)F)c(C(=O)N2CCNCC2)cc(-c2nc(-c3ccc(Cl)cc3)cs2)c1=O [Compound 373]	300 to 1000 nM	300 to 1000 nM
COc1cccc(C)c1-n1c2c(cc(-c3nc(-c4ccc(Cl)cc4)cs3)c1=O)C(=O)CCC2 [Compound 375]	1000 to 5000 nM	1000 to 5000 nM
CCc1cccc(CC)c1-n1c(C=C(C)C)c(C(=O)N2CCNCC2)cc(-c2nc(-c3ccc(Cl)cn3)cs2)c1=O [Compound 377]	< 300 nM	< 300 nM
CCc1ccc(F)cc1-n1c(C=C(C)C)c(C(=O)N2CCNCC2)cc(-c2nc(-c3ccc(C(F)F)cc3)cs2)c1=O [Compound 379]	< 300 nM	< 300 nM
Cn1nccc1-n1c2c(cc(-c3nc(-c4ccc(Cl)cc4)cs3)c1=O)C(=O)CC(C)(C)C2 [Compound 382]	1000 to 5000 nM	5000 to 20000 nM
